Source: PubChem BioAssay AID248 (DTP/NCI, 2004)
“And” between values parts separate entries of the source, which are not always exact repeats. Identical values can stand only once. Inconclusive results and toxic doses are left out. No stated cut-off is given here; in the data, active means T/C of 150% or more; inactive means T/C below 125%. Square brackets hold non-standard residues; d marks the D form. Peptide text beside a SMILES is read from it. * marks the point of attachment. ONb = O=[N+]([O-])c1ccc(CO*)cc1; Cbz = O=C(OCc1ccccc1)*; Nva = CCC[CH](N)C(=O)O; Bn = c1ccc(C*)cc1

Tested on: L1210 leukemia ip in BDF1 mice, survival T/C
Assay: NCI In Vivo Anticancer Drug Screen. Data for tumor model L1210 Leukemia (intraperitoneal) in B6D2F1 (BDF1) mice
Conditions: endpoint: mean survival time, higher = longer survival
Protocol: The antitumor activity of compounds was measured in mice bearing transplantable tumors. Survival or tumor size were measured and the results are expressed as the measurement made in the treated group (T) divided by the measurement made in the vehicle treated control group (C). The tumor model used in this assay is L1210 Leukemia (intraperitoneal) in B6D2F1 (BDF1) mice

[1] = dose: 100.0 mg/kg/injection, schedule: Q01DX009 (ip), vehicle: Klucel (hydroxypropylcellulose) (HPC)
[2] = dose: 100.0 mg/kg/injection, schedule: Q04DX002 (ip), vehicle: saline
[3] = dose: 200.0 mg/kg/injection, schedule: Q04DX002 (ip), vehicle: saline
[4] = dose: 400.0 mg/kg/injection, schedule: Q04DX002 (ip), vehicle: saline
[5] = dose: 200.0 mg/kg/injection, schedule: Q04DX002 (ip), vehicle: saline with Tween-80
[6] = dose: 400.0 mg/kg/injection, schedule: Q04DX002 (ip), vehicle: saline with Tween-80
[7] = dose: 75.0 mg/kg/injection, schedule: Q01DX009 (ip), vehicle: Klucel (hydroxypropylcellulose) (HPC)
[8] = dose: 100.0 mg/kg/injection, schedule: Q01DX001 (ip), vehicle: saline
[9] = dose: 200.0 mg/kg/injection, schedule: Q01DX001 (ip), vehicle: saline
[10] = dose: 100.0 mg/kg/injection, schedule: Q04DX003 (ip), vehicle: saline with Tween-80
[11] = dose: 200.0 mg/kg/injection, schedule: Q04DX003 (ip), vehicle: saline with Tween-80
[12] = dose: 200.0 mg/kg/injection, schedule: Q01DX009 (ip), vehicle: Klucel (hydroxypropylcellulose) (HPC)
[13] = dose: 400.0 mg/kg/injection, schedule: Q01DX009 (ip), vehicle: Klucel (hydroxypropylcellulose) (HPC)
[14] = dose: 400.0 mg/kg/injection, schedule: Q04DX003 (ip), vehicle: saline with Tween-80

Measured: T/C

CCN(CC)C(=O)C1C2CC3OC(=O)C1C3C2 (centres undefined)
inactive: dose: 100.0 mg/kg/injection, schedule: Q04DX003 (ip), vehicle: saline 105 % of control and 108 % of control | dose: 200.0 mg/kg/injection, schedule: Q04DX003 (ip), vehicle: saline 94 % of control and 102 % of control | dose: 400.0 mg/kg/injection, schedule: Q04DX003 (ip), vehicle: saline 104 % of control

CCOC(=O)c1cc(Br)c(O)c(Br)c1
inactive: dose: 50.0 mg/kg/injection, schedule: Q01DX009 (ip), vehicle: Klucel (hydroxypropylcellulose) (HPC) 95 % of control | [1] 91 % of control

O=C(COc1ccc(Cl)cc1Cl)OCCOc1ccc(Cl)cc1
inactive: dose: 100.0 mg/kg/injection, schedule: Q04DX002 (ip), vehicle: Klucel (hydroxypropylcellulose) (HPC) 97 % of control | dose: 200.0 mg/kg/injection, schedule: Q04DX002 (ip), vehicle: Klucel (hydroxypropylcellulose) (HPC) 97 % of control | dose: 400.0 mg/kg/injection, schedule: Q04DX002 (ip), vehicle: Klucel (hydroxypropylcellulose) (HPC) 118 % of control

Cc1ccc(NC(=O)NCCCCl)cc1
inactive: dose: 50.0 mg/kg/injection, schedule: Q01DX001 (ip), vehicle: carboxymethylcellulose (CMC) 98 % of control | dose: 100.0 mg/kg/injection, schedule: Q01DX001 (ip), vehicle: carboxymethylcellulose (CMC) 110 % of control | dose: 200.0 mg/kg/injection, schedule: Q01DX001 (ip), vehicle: carboxymethylcellulose (CMC) 98 % of control | dose: 400.0 mg/kg/injection, schedule: Q01DX001 (ip), vehicle: carboxymethylcellulose (CMC) 106 % of control

Nc1ccc(F)c(Cl)c1
inactive: [2] 121 % of control | [3] 98 % of control | [4] 105 % of control

CCC1=C/C(=C\c2ccc3c(c2)OCO3)C(=O)S1
inactive: [5] 89 % of control | [6] 89 % of control

CN(C)N=Nc1ccccc1C(=O)NNC(N)=S
inactive: dose: 18.75 mg/kg/injection, schedule: Q01DX009 (ip), vehicle: Klucel (hydroxypropylcellulose) (HPC) 109 % of control | dose: 37.5 mg/kg/injection, schedule: Q01DX009 (ip), vehicle: Klucel (hydroxypropylcellulose) (HPC) 116 % of control | [7] 89 % of control

CN(C)Cc1cc(C23CC4CC(CC(C4)C2)C3)cc(-c2ccccc2)c1O
inactive: dose: 100.0 mg/kg/injection, schedule: Q04DX003 (ip), vehicle: acetone 95 % of control | dose: 200.0 mg/kg/injection, schedule: Q04DX003 (ip), vehicle: acetone 98 % of control | dose: 400.0 mg/kg/injection, schedule: Q04DX003 (ip), vehicle: acetone 90 % of control

COC1C=CC2C3Cc4ccc(O)c5c4C2(CCN3C)C1O5 (centres undefined)
inactive: dose: 75.0 mg/kg/injection, schedule: Q01DX001 (ip), vehicle: saline 104 % of control | dose: 150.0 mg/kg/injection, schedule: Q01DX001 (ip), vehicle: saline 103 % of control

Cc1cc(-c2ccc([N+](=O)[O-])cc2)cn1-c1ccccc1
inactive: dose: 50.0 mg/kg/injection, schedule: Q04DX002 (ip), vehicle: saline with Tween-80 97 % of control | dose: 100.0 mg/kg/injection, schedule: Q04DX002 (ip), vehicle: saline with Tween-80 97 % of control and 89 % of control | [5] 87 % of control | [6] 96 % of control

O=C(NCCO)Nc1ccccc1Cl
inactive: [2] 103 % of control | [3] 100 % of control | [4] 100 % of control

NC(=S)N1CCCCC1
inactive: [8] 98 % of control | [9] 96 % of control

Brc1ccc(Nc2c3ccccc3nc3ccccc23)cc1
inactive: [10] 97 % of control | [11] 103 % of control

CCCC(NC(=O)C(CSCc1ccccc1)NC(=O)OCc1ccccc1)C(=O)OCc1ccc([N+](=O)[O-])cc1 (centres undefined) (Cbz-Cys(Bn)-[Nva]-ONb; configuration not given here)
inactive: dose: 100.0 mg/kg/injection, schedule: Q01DX001 (ip), vehicle: other 90 % of control | dose: 200.0 mg/kg/injection, schedule: Q01DX001 (ip), vehicle: other 90 % of control | dose: 400.0 mg/kg/injection, schedule: Q01DX001 (ip), vehicle: other 89 % of control

Cc1cc(Cl)c(Cl)cc1NC(=O)Nc1cccc(C(F)(F)F)c1
inactive: dose: 100.0 mg/kg/injection, schedule: Q01DX009 (ip), vehicle: carboxymethylcellulose (CMC) 93 % of control | dose: 200.0 mg/kg/injection, schedule: Q01DX009 (ip), vehicle: carboxymethylcellulose (CMC) 91 % of control | dose: 400.0 mg/kg/injection, schedule: Q01DX009 (ip), vehicle: carboxymethylcellulose (CMC) 102 % of control

COc1ccc(OC)c(NC(=O)Nc2cccc(C(C)=O)c2)c1
inactive: [1] 96 % of control | [12] 106 % of control | [13] 102 % of control

O=C(COc1ccc(Cl)c(Cl)c1)Nc1ccc[n+](Cc2ccc(Cl)c(Cl)c2)c1
inactive: dose: 100.0 mg/kg/injection, schedule: Q04DX003 (ip), vehicle: Klucel (hydroxypropylcellulose) (HPC) 90 % of control | dose: 200.0 mg/kg/injection, schedule: Q04DX003 (ip), vehicle: Klucel (hydroxypropylcellulose) (HPC) 97 % of control | dose: 400.0 mg/kg/injection, schedule: Q04DX003 (ip), vehicle: Klucel (hydroxypropylcellulose) (HPC) 104 % of control

c1ccc(C2(c3ccccc3)CC([P+](c3ccccc3)(c3ccccc3)c3ccccc3)N=N2)cc1 (centres undefined)
inactive: dose: 10.0 mg/kg/injection, schedule: Q01DX001 (ip), vehicle: saline 103 % of control | dose: 20.0 mg/kg/injection, schedule: Q01DX001 (ip), vehicle: saline 111 % of control | dose: 40.0 mg/kg/injection, schedule: Q01DX001 (ip), vehicle: saline 112 % of control

CCOC(=O)CN1CCC(C2(c3cc4ccccc4[nH]3)OCCO2)CC1
inactive: dose: 12.0 mg/kg/injection, schedule: Q04DX003 (ip), vehicle: Klucel (hydroxypropylcellulose) (HPC) 91 % of control | dose: 25.0 mg/kg/injection, schedule: Q04DX003 (ip), vehicle: Klucel (hydroxypropylcellulose) (HPC) 89 % of control | dose: 50.0 mg/kg/injection, schedule: Q04DX003 (ip), vehicle: Klucel (hydroxypropylcellulose) (HPC) 100 % of control | [1] 97 % of control | [12] 103 % of control | [13] 101 % of control

CCCCc1[nH]ccc2c(C)c3nc4ccccc4c3cc12
inactive: dose: 50.0 mg/kg/injection, schedule: Q01DX001 (ip), vehicle: saline 96 % of control | [8] 97 % of control | [9] 96 % of control | dose: 400.0 mg/kg/injection, schedule: Q01DX001 (ip), vehicle: saline 97 % of control

Brc1ccc([Si](c2ccccc2)(c2ccccc2)c2ccccc2)cc1
inactive: [10] 97 % of control | [11] 92 % of control | [14] 89 % of control

CCOC(=O)C1(c2cc(NS(=O)(=O)c3ccccc3)ccc2O)CCCCC1=O (centres undefined)
inactive: dose: 50.0 mg/kg/injection, schedule: Q01DX001 (ip), vehicle: saline sonified 97 % of control | dose: 100.0 mg/kg/injection, schedule: Q01DX001 (ip), vehicle: saline sonified 93 % of control | dose: 200.0 mg/kg/injection, schedule: Q01DX001 (ip), vehicle: saline sonified 94 % of control

O=C1C=C(c2ccccc2)OC(c2ccccc2)C1 (centres undefined)
inactive: [7] 97 % of control | dose: 150.0 mg/kg/injection, schedule: Q01DX009 (ip), vehicle: Klucel (hydroxypropylcellulose) (HPC) 99 % of control | dose: 300.0 mg/kg/injection, schedule: Q01DX009 (ip), vehicle: Klucel (hydroxypropylcellulose) (HPC) 99 % of control

COCC1OC(n2cc(C)c(=O)n(C)c2=O)CC1OC (centres undefined)
inactive: dose: 50.0 mg/kg/injection, schedule: Q01DX005 (ip), vehicle: saline 102 % of control | dose: 100.0 mg/kg/injection, schedule: Q01DX005 (ip), vehicle: saline 98 % of control | dose: 200.0 mg/kg/injection, schedule: Q01DX005 (ip), vehicle: saline 100 % of control

CCCN(CCC)N=Nc1c(C(=O)OC)n[nH]c1C
inactive: dose: 50.0 mg/kg/injection, schedule: Q04DX003 (ip), vehicle: saline with Tween-80 103 % of control | [10] 104 % of control and 109 % of control | dose: 175.0 mg/kg/injection, schedule: Q01DX009 (ip), vehicle: saline 124 % of control | [11] 104 % of control and 109 % of control | dose: 400.0 mg/kg/injection, schedule: Q01DX009 (ip), vehicle: saline 96 % of control | [14] 102 % of control
